This is an account of results in patent US8821568B2, “Implant modified with non-hydroxylated vitamin D precursors” (Numat Biomedical S.L., priority 2008, dated 2014).

Common to all, as to assay type: cell-based, mouse
In data set [1] the test system is MC3T3-E1 cells. Nature of the data set: LDH activity (cell viability) on coated titanium implants. Here is the method:
To treat implant surfaces, 10 μl of each dilution treatment were left on the surfaces and were allowed to air-dry for 15 min in the sterile flow bench. For UV-irradiation, a UV lamp of 302 nm was used at an intensity of irradiation ca. 6 mW/cm^2 during several irradiation times.
To test the effect of the surface modification, 96-well plates were used. Ti disks were placed into the wells and treatments and UV-activation were performed over there. Cells grown onto untreated polystyrene tissue culture plastic (TCP) were added as a control for all the experiments. Cells were seeded at a density of 30,000 cells/cm^2 and they were maintained in α-MEM supplemented with 10% FCS and antibiotics. […] Cells were harvested after two days of culture using Trizol reagent (Roche Diagnostics, Mannheim, Germany), to analyze gene expression of several osteoblast differentiation markers and enzymes involved in vitamin D synthesis using real-time RT-PCR. […]
(§1) Lactate dehydrogenase (LDH) activity in the culture media was used as an index of cell death. LDH activity was determined spectrophotometrically after 30 min incubation at 25° C. of 50 μl of culture and 50 μl of the reaction mixture by measuring the oxidation of NADH at 490 nm in the presence of piruvate following the manufacturer's protocol (Cytotoxicity Detection Kit (LDH), Roche Diagnostics, Mannheim, Germany). […]

The test system of data set [2] is MC3T3-E1 cells. Nature of the data set: ELISA of 25-D3 and 1,25-D3 released to the culture media, plastic wells. Particulars: TCP, 48 hours, 2×10^−3 to 20 nmols. The procedure:
To test the effect of the different treatments onto the plastic wells, 96-well plates made of polystyrene were used and the treatments with 7-DHC performed directly onto them. Cells grown onto untreated TCP were added as a control for all the experiments. Cells were seeded at a density of 30,000 cells/cm^2 and they were maintained in α-MEM supplemented with 10% FCS and antibiotics. Culture media was collected after 48 hours, to test cytotoxicity and the production of the hydroxylated forms of vitamin D. Cells were harvested after 2 days of culture using Trizol reagent (Roche Diagnostics, Mannheim, Germany), to analyse early gene expression response of several osteoblast differentiation markers and enzymes involved in vitamin D synthesis using real-time RT-PCR.
25-D3 and 1,25-D3 released to the culture media after two days of treatment were analyzed by enzyme-linked immunosorbent assay (ELISA). Aliquots from the culture media were centrifuged at 1800 rpm for 5 minutes at 4° C. and supernatants were used for 25-D3 and 1,25-D3 determination following instructions described by the manufacturer (Immunodiagnostic Systems Ltd, Boldon, Tyne and Wear, UK).

In data set [3] the test system is MC3T3-E1 cells. The data set can be described thus: LDH activity (cytotoxicity) of cells on treated tissue culture plastic wells. Particulars: TCP wells; after 24 hours; UV-treated (302 nm, 30 min); higher dose (20 nmols); compared to low control. The procedure:
To treat tissue culture plastic (TCP) wells, 10 μl of each dilution treatment were left on the surfaces and were allowed to air-dry for 15 min in the sterile flow bench. For UV-irradiation, a UV lamp of 302 nm was used at an intensity of irradiation of 6 mW/cm^2 (UVP, Upland, Calif., USA) during 30 minutes. Treated surfaces were immediately used for cell culture experiments.
To test the effect of the different treatments onto the plastic wells, 96-well plates made of polystyrene were used and the treatments with 7-DHC performed directly onto them. Cells grown onto untreated TCP were added as a control for all the experiments. Cells were seeded at a density of 30,000 cells/cm^2 and they were maintained in α-MEM supplemented with 10% FCS and antibiotics. […]
as §1

Data set [4] deals with MC3T3-E1 cells. The data set can be described thus: ELISA of 25-D3 released to the culture media, coated titanium implants. Particulars: Ti implants; 0.2 nmols; 48 h; UV exposure 15 minutes; vs ethanol-treated Ti samples. Here is the method:
To test the effect of the surface modification, 96-well plates were used. Ti disks were placed into the wells and treatments and UV-activation were performed over there. Cells grown onto untreated polystyrene tissue culture plastic (TCP) were added as a control for all the experiments. Cells were seeded at a density of 30,000 cells/cm^2 and they were maintained in α-MEM supplemented with 10% FCS and antibiotics. Culture media was collected after 48 hours, to test cytotoxicity and the production of the hydroxylated form of vitamin D, 25-D3. Cells were harvested after two days of culture using Trizol reagent (Roche Diagnostics, Mannheim, Germany), to analyze gene expression of several osteoblast differentiation markers and enzymes involved in vitamin D synthesis using real-time RT-PCR. On the other hand, MC3T3-E1 cells were harvested after 21 days to measure calcium content and ALP activity in the cell monolayer.
25-D3 released to the culture media after 2 days of treatment were analyzed by enzyme-linked immunosorbent assay (ELISA). Aliquots from the culture media were centrifuged at 1800 rpm for 5 minutes at 4° C. and supernatants were used for 25-D3 and determination following instructions described by the manufacturer (Immunodiagnostic Systems Ltd, Boldon, Tyne and Wear, UK).
For orientation: ELISA stands for enzyme-linked immunosorbent assay.

Take `CC(C)CCC[C@@H](C)[C@H]1CC[C@H]2C3=CC=C4C[C@@H](O)CC[C@]4(C)[C@H]3CC[C@]12C` [7-DHC, 7-dehydrocholesterol]: the Cytotoxic effect result in data set [1] (Ti implants treated and UV-irradiated) was “No cytotoxic effect”. The “Cell viability (LDH activity)” value in data set [1] (Ti implants, 0.2 nmols, 24 h, UV-activated 5 to 10 minutes, compared to negative control (TCP)) is “protective effects”. In addition, the “Production of 25-D3 and 1,25-D3 (dose-response)” value in data set [2] (activated by UV irradiation) was “a dose-response was found”; in data set [2] (not UV-treated), “no dose-response was detected”. Further, the “Cytotoxicity (LDH activity in culture media)” value in data set [3] is listed as “toxic effect”. For the same compound, in data set [4], the “25-D3 secretion to the cell culture media” value is “increased 25-hydroxyvitamin D3 (25-D3) production”.
